{"source": "patent US6083920A", "about": "“Compositions for modulating intracellular inositol trisphosphate concentration” (priority 1996, dated 2000)", "key": {"[1]": {"experiment": "Lysosphingolipid loading of isolated neuronal plasma membrane", "assay_type": "in vitro ADME, chick", "conditions": "Plasma Membrane Suspension, 10 μmolar exposure", "from_the_text": "Total lipids were removed from the neuron samples by repeated extraction with chloroforn:methanol (2:1, vol:vol). […] The recovered lysosphingolipids were stably tagged with NBDZF by the rapid procedure of Nozowa et al. (supra). The fluorescence tagged neuronal lysosphingolipids were separated in parallel with reference standards NBDZF-Sph, NBDZF-Psy, and NBDZF-Lsm on high performance silica gel thin layer chromatography plates with acetonitrile:H2 O (10:0.5, vol:vol). The highly fluorescent, well separated bands were scraped from the plate. The fluorescence tagged lysosphingolipids are eluted from the scraped silica gel with methanol:1 N HCl (1:0.02, vol:vol). The fluorescence tagged lysosphingolipid eluates were quantitated against reference standards by fluorescence measurement in a Perkin-Elmer LS-5 Fluorescence Spectrometer.\nPhysiologically active phospholipase C is present on the endofacial portion of the plasma membrane. A procedure for examining its activity in an intact membrane is provided. […] One hundred Petri dishes of cultured cortical neurons were incubated overnight with 50 μCi [^3 H]myo-inositol per mL of culture medium. […] The collected neurons were homogenized in 5 mL 0.32 M sucrose and centrifuged at 1000×g for 15 minutes. The supernatant was layered on top of 2 ml 1.2 M sucrose and centrifuged at 300,000×g for 20 minutes. The sedimented pellet was resuspended by sonication for 10 seconds in 50 mM Tris buffer (pH 7.4), containing 0.3 μM CaCl2, 1 mM MgCl2, and 0.01% ascorbic acid.\nThe suspended plasma membrane preparation was apportioned into 250 μl samples, each providing approximately 100 μg membrane protein. Sphingosine, psychosine, and lysosphingomyelin were added to each plasma membrane sample. […] Samples were analyzed for lysosphingolipid loading (i.e., membrane lysosphingolipid content following exposure to exogenous sphingolipid) by fluorescence tagging. […] Values are reported in pmoles lysosphingolipid/mg plasma membrane protein."}, "[2]": {"test_system": "phospholipase C isoforms beta, delta, and gamma", "description": "The effects of sphingosine, lysocerebroside, and lysosphingomyelin on the kinetics of pure, immunologically isolated phospholipase C isoforms beta, delta, and gamma (which are commercially available) was examined. For each isoform, 10 μM sphingosine was added to a reaction medium consisting of 1 μg phospholipase C isoform/ml, Tris-malate buffer (50 mM, pH 7.0) containing 100 μM phosphatidyl inositol bis-phosphate tri-ammonium salt, 0.01 μCi tritium labeled phosphatidyl inositol bis-phosphate, 100 mM NaCl, 10 mM CaCl2, and 5 mM 2-merceptoethanol."}, "[3]": {"test_system": "hippocampal neurons", "experiment": "Histological analysis of brain 7 days after ICV infusion (cresyl violet)", "assay_type": "in vivo, male F344 rats", "conditions": "pretreatment with psychosine 125 nmoles, quisqualate 225 nmoles ICV, 7 days", "experimental": "(§1) Before administering various compounds, the animals were anesthetized with sodium pentobarbital (50 mg/kg, i.p.) and positioned in a sterotaxic instrument. A 26 gauge cannula was inserted into the cerebral ventricle at the following co-ordinates: 1.0 mm posterior to bregma, 1.5 mm lateral to the midline, and 4.0 mm below the dorsal surface of the neocortex. Cannulas were capped and fixed in place with dental cement. One week after cannulation, 10 μl of each of the treatment drugs was infused, ICV (i.e. into the ventricals of the brain), via a micropump at a rate of 10 μl/min. For this procedure, the animals were lightly restrained and unanesthetized. Following administration of the compound, the infusion cannula remained in position for one minute, after which the permanent in situ cannula was capped.\nSeven days after the compounds were administered, animals were sacrificed by transcardial perfusion with neutralized, buffered 10% formalin-saline. Their brains were removed, post-fixed overnight in 10% formalin-saline, and sectioned along the coronal plane (into 50 μm thick sections) on a freezing microtome. The sections were stained with cresyl violet to determine the extent of cellular destruction. […]\nGiven that high concentrations of metabotropic receptors are located in the hippocampus, and that the hippocampus is particularly vulnerable to the effects of a variety of insults including ischemia and hypoxia, this region was examined for evidence of neuronal degeneration due to glutamate excitotoxicity."}, "[4]": {"test_system": "metabotropic glutamate receptor", "experiment": "Behavioral analysis after ICV infusion (quisqualate excitotoxicity)", "assay_type": "in vivo, male F344 rats", "experimental": "The animals used in this experiment were male F344 rats (Charles River Breeding Laboratories). The animals were housed individually, exposed to a 12-hour light-dark cycle, and allowed free access to food and water. The animals weighed approximately 250 g at the beginning of each experiment and were weighed daily. In addition, the animals were habituated to handling before each experiment.\nas §1\nThe compounds administered were obtained from a commercial supplier (Sigma Chemical Co., St. Louis, Mo.) and dissolved in saline prior to injection. […]\nPilot studies identified several specific behavioral measures that could be used to indicate excessive activation of the metabotropic receptor (see Table 3). […] The experiments that follow were based on an analysis of these behaviors over a two hour period after administration of the compounds of the invention. Behavioral observation was carried out by two trained observers, who worked independently of one another and who were blind to the experimental groups. […] Frequency and duration means were computed by subtracting pre-infusion means from post-infusion means.\nSome of the experiments that were performed first were carried out to determine the amount of quisqualate required to produce behavioral and histological changes and the amount of lysosphingolipids that could effectively prevent or reverse these effects. Table 3 outlines the behavioral responses of rats to various doses of quisqualate (injected as described above) and the associated histological changes. The behaviors are listed as they occur chronologically. The limb clasp and reflex tests indicate the degree of decortication. A limb clasp or placement score of zero is normal, and a score of 3 is severely abnormal.\nThe data shown in Table 4 represents the observations of pilot studies aimed at determining the effect (on behavior) of lysosphingolipids infused directly into the lateral ventricles of the brain 30 minutes prior to infusion of quisqualate.\nThe experiment began one week after ICV cannulation. Animals (n=6 per group) were randomly allocated to one of 8 treatment groups: (1) saline, (2) quisqualate at 225 nmoles, (3) psychosine at 125 nmoles, (4) lysosphingomyelin at 125 nmoles, (5) lysosphingomyelin at 150 nmoles, (6) quisqualate at 225 nmoles and psychosine at 125 nmoles, (7) quisqualate at 225 nmoles and lysosphingomyelin at 125 nmoles, and (8) quisqualate at 225 nmoles and lysosphingomyelin at 150 nmoles. Following the baseline observation period, animals received the first of two ICV infusions (all infusions were of a 10 μl volume that was administered over a 1 minute period). For the first five groups listed above, this consisted of saline (10 μl/minute), for the following 3 groups the infusions were psychosine at 125 nmoles, lysosphingomyelin at 125 nmoles, or Iysosphingomyelin at 150 nmoles, respectively. Thirty minutes later, all animals received the second infusion which, for the first five groups listed above, consisted of saline, quisqualate at 225 nmoles, psychosine at 125 nmoles, lysosphingomyelin at 125 mrnoles, and lysosphingomyelin at 150 nmoles respectively. […]"}, "[5]": {"conditions": "10 μM lysocerebroside or 5 μM lysosphingomyelin"}}, "note": "“Also recorded” adds a separate entry of the source."}
{"compound": "CCCCCCCCCCCCC/C=C/[C@@H](O)[C@@H](N)CO[C@@H]1O[C@H](CO)[C@H](O)[C@H](O)[C@H]1O", "note": "[psychosine, lysocerebroside]", "values": [{"measurement": "membrane lysosphingolipid content, 0 hours of incubation", "setting": "[1]; 0 h", "value": "45 ± 5 pmoles lysosphingolipid/mg pla"}, {"measurement": "membrane lysosphingolipid content, 0.5 hours of incubation", "setting": "[1]; 0.5 h", "value": "75 ± 20 pmoles lysosphingolipid/mg pla"}, {"measurement": "membrane lysosphingolipid content, 1.0 hours of incubation", "setting": "[1]; 1.0 h", "value": "120 ± 15 pmoles lysosphingolipid/mg pla"}, {"measurement": "membrane lysosphingolipid content, 2.0 hours of incubation", "setting": "[1]; 2.0 h", "value": "180 ± 15 pmoles lysosphingolipid/mg pla"}, {"measurement": "membrane lysosphingolipid content, 3.0 hours of incubation", "setting": "[1]; 3.0 h", "value": "175 ± 20 pmoles lysosphingolipid/mg pla"}, {"measurement": "diminution in Vmax", "setting": "[2]; [5]", "value": "60%±10%"}, {"measurement": "increase in calcium ion concentration required for optimal activity", "setting": "[2]; [5]", "value": 5, "unit": "fold"}, {"measurement": "effect on KM for substrate phosphatidylinositol bis-phosphate", "setting": "[2]; 10 μM sphingosine, 10 μM lysocerebroside, 5 μM lysosphingomyelin", "value": "no change"}, {"measurement": "neuronal loss (CA1 pyramidal neurons, hippocampus) caused by quisqualate", "setting": "[3]", "value": "prevents the neuronal loss caused by quisqualate"}, {"measurement": "convulsant behavior, compound alone", "setting": "[4]; 125 nmoles ICV, no quisqualate", "value": "displayed no convulsant behavior"}, {"measurement": "effective dose", "setting": "[4]; ICV, rat, pilot testing", "value": 125, "unit": "nmol"}, {"measurement": "BEHAVIORAL RESPONSE", "setting": "[4]; Psychosine 25 nmoles ICV 30 minutes prior to Quisqualate 200 nmoles", "value": "Moderate convulsions, teeth chattering; also recorded: akinesia and hyperactivity"}, {"measurement": "BEHAVIORAL RESPONSE", "setting": "[4]; Psychosine 50 nmoles ICV 30 minutes prior to Quisqualate 200 nmoles", "value": "Moderate convulsions, teeth chattering; also recorded: akinesia and hyperactivity"}, {"measurement": "BEHAVIORAL RESPONSE", "setting": "[4]; Psychosine 100 nmoles ICV 30 minutes prior to Quisqualate 200 nmoles", "value": "Almost complete attenuation of Quisqualate; also recorded: some teeth chattering post-injection"}, {"measurement": "BEHAVIORAL RESPONSE", "setting": "[4]; Psychosine 100 nmoles ICV 30 minutes prior to Quisqualate 250 nmoles", "value": "Moderate convulsions, teeth chattering; also recorded: akinesia. Quisqualate markedly reduced"}, {"measurement": "BEHAVIORAL RESPONSE", "setting": "[4]; Psychosine 125 nmoles ICV 30 minutes prior to Quisqualate 200 nmoles", "value": "Complete attenuation of Quisqualate response"}, {"measurement": "BEHAVIORAL RESPONSE", "setting": "[4]; Psychosine 125 nmoles ICV 30 minutes prior to Quisqualate 225 nmoles", "value": "Complete attenuation of Quisqualate response"}, {"measurement": "BEHAVIORAL RESPONSE", "setting": "[4]; Psychosine 150 nmoles ICV 30 minutes prior to Quisqualate 250 nmoles", "value": "Almost complete attenuation of Quisqualate"}, {"measurement": "sedation produced by the lysosphingolipid", "setting": "[4]; Psychosine 150 nmoles ICV, short term", "value": "sedation at this dose"}, {"measurement": "behavioral or neurotoxic effects of the compound itself", "setting": "[4]; doses as high as 125 nmoles per animal ICV", "value": "no behavioral or neurotoxic effects were observed"}, {"measurement": "behavioral and histological changes caused by quisqualate", "setting": "[4]; pretreated with 125 nmoles ICV, rat", "value": "absent"}, {"measurement": "number of convulsions or spasms", "setting": "[4]; pretreatment 125 nmoles ICV 30 minutes before quisqualate 225 nmoles, n=6", "value": "significantly (p<01) attenuated"}]}
